From ChEMBL document CHEMBL3865833, “Functional induction of P-glycoprotein efflux pump by phenyl benzenesulfonamides: Synthesis and biological evaluation of T0901317 analogs” (Eur J Med Chem, 2016)
Calls of active or inactive are those of the source. No cut-off for these calls is given here.

What was measured:
LS180 [1] = experiment: (§1) Activation of PXR/LXR in human LS180 cells assessed as induction of P-gp measured as intracellular accumulation of Rhodamine-123 at 5 uM preincubated for 48 hrs followed by 40 mins incubation with HANKS buffer and subsequent addition of Rhodamine-123 measured after 90 mins by fluorescence analysis relative to control; type: cell-based
[2] = Cytotoxicity against human SH-SY5Y cells assessed as effect on cell viability at 50 uM measured after 24 hrs by MTT assay relative to control; type: toxicity, cell-based; details: read-out: Activity
[3] = Cytotoxicity against human LS180 cells assessed as effect on cell viability at 50 uM measured after 24 hrs by MTT assay relative to control; type: toxicity, cell-based; details: read-out: Activity
LS180 [4] = experiment: as §1, with “by measuring decrease in” for “measured as”, “0.3” for “5”, “assay” for “analysis relative to control”; type: cell-based
[5] = Therapeutic index, ratio of effective concentration for cytotoxicity in human SH-SY5Y cells to effective concentration for activation of PXR/LXR in human LS180 cells assessed as induction of P-gp; type: cell-based; details: read-out: TI
[6] = Therapeutic index, ratio of effective concentration for cytotoxicity in human LS180 cells to effective concentration for activation of PXR/LXR in human LS180 cells assessed as induction of P-gp; type: cell-based; details: read-out: TI
[7] = Cytotoxicity against human LS180 cells assessed as effect on cell viability measured after 24 hrs by MTT assay; type: toxicity, cell-based
[8] = Cytotoxicity against human SH-SY5Y cells assessed as effect on cell viability measured after 24 hrs by MTT assay; type: toxicity, cell-based
LS180 [9] = experiment: Activation of PXR/LXR in human LS180 cells assessed as induction of P-gp at 5 uM measured after 24 hrs by Western blot analysis; type: cell-based
[10] = Neuroprotective activity in human SH-SY5Y cells assessed as decrease in amyloid beta-induced cytotoxicity measured as cell viability at 5 uM pretreated for 30 mins prior amyloid beta-challenge measured after 48 hrs by MTT assay (reference value: 68%); type: functional
LS180 [11] = experiment: as §1, with “by measuring” for “measured as”, “10” for “5”, “assay” for “analysis”; type: cell-based

SMILES | Activity (LS180 [1]) [%] | viability at 24 h, 50 µM [2] [%] | viability at 24 h, 50 µM [3] [%] | Activity (LS180 [4]) | selectivity ratio [5] | selectivity ratio [6] | IC50 at 24 h [7] [µM] | IC50 at 24 h [8] [µM] | Activity (LS180 [9]) | Activity [10] [%] | Activity (LS180 [11]) [%]
O=S(=O)(c1ccccc1)N(Cc1cn(-c2ccccc2F)nn1)c1ccc(C(O)(C(F)(F)F)C(F)(F)F)cc1 | 61.8 | 129 | 65.1 | Active | 10 | 10 | – | – | – | – | –
CC(=O)c1ccc(N(Cc2cn(-c3ccc(C(F)(F)F)cc3)nn2)S(=O)(=O)c2ccccc2)cc1 | 48.4 | 108 | 76.7 | Active | > 166 | > 166 | > 50 | > 50 | Active | 79 | –
CC(=O)c1ccc(N(Cc2cn(-c3ccccc3C(F)(F)F)nn2)S(=O)(=O)c2ccccc2)cc1 | 48.5 | 83.9 | 112 | – | 10 | 10 | – | – | Active | – | –
O=S(=O)(c1ccccc1)N(CC(F)(F)F)c1ccc(C(O)(C(F)(F)F)C(F)(F)F)cc1 [T091317] | 64.2 | 94.8 | 73.3 | Active | 10 | 10 | > 50 | > 50 | Active | – | –
CO[C@H]1/C=C/O[C@@]2(C)Oc3c(C)c(O)c4c(O)c(c(/C=N/N5CCN(C)CC5)c(O)c4c3C2=O)NC(=O)/C(C)=C\C=C\[C@H](C)[C@H](O)[C@@H](C)[C@@H](O)[C@@H](C)[C@H](OC(C)=O)[C@@H]1C | – | – | – | – | – | – | – | – | – | – | 66.9
COC(=O)c1ccc(-n2cc(CN(c3ccc(C(C)=O)cc3)S(=O)(=O)c3ccccc3)nn2)cc1 | 77 | 71.8 | 80.6 | – | 10 | 10 | – | – | – | – | –
CC(=O)c1ccc(N(Cc2cn(-c3ccccc3)nn2)S(=O)(=O)c2ccccc2)cc1 | 53.4 | 114 | 86.3 | Active | 10 | – | – | – | – | – | –
O=S(=O)(c1ccccc1)N(Cc1cn(-c2c(F)cccc2F)nn1)c1ccc(C(O)(C(F)(F)F)C(F)(F)F)cc1 | 65.1 | 125 | 74.5 | Active | 10 | 10 | – | – | – | 75 | –
COc1ccc(-n2cc(CN(c3ccc(C(C)=O)cc3)S(=O)(=O)c3ccccc3)nn2)cc1 | 86.3 | 88.5 | 93.3 | – | 10 | 10 | – | – | – | – | –
CC(=O)c1ccc(N(Cc2cn(-c3ccc(C(C)=O)cc3)nn2)S(=O)(=O)c2ccccc2)cc1 | 66.2 | 97.3 | 87.3 | – | 10 | 10 | – | – | – | – | –
